# Experimental data from patent US5955505A, “Glutamic acid receptor agonist” (Nippon Suisan Kaisha, Ltd., priority 1995, dated 1999).
# Entries after “also recorded” stand apart in the source; their conditions may differ.
# Experiments:
# [1] = tested on: non-NMDA receptors; test: Potentiation of AMPA- or kainic acid-elicited membrane current in Xenopus oocytes injected with rat hippocampus poly(A)+ RNA (two-electrode voltage clamp)
# Method: By use of an improved method of Masu's Xenopus oocyte expression system [Nature 329,836 (1987)] an electrophysiological analysis was conducted.
# (1) Preparation of poly(A)^+ RNA isolated from a rat hippocampus.
# A hippocampus region was isolated from a rat and homogenized in the presence of […] and total RNA was extracted from the hippocampus by means of the ultracentrifugating method utilizing cesium chloride. Poly(A)^+ RNA was refined from the obtained RNA by use of oligo dT cellulose column.
# (2) Expression of protein in Xenopus oocytes
# (§1) 50 nl of the poly(A)^+ RNA (1 μg/μl) isolated was injected into an oocyte by a micromanipulator and the oocytes were cultured in a Barth's medium (88 mM NaCl, 1 mM KCl, 2.4 mM NaHCO3, 0.3 mM Ca(NO3)2, 0.41 mM CaCl2, 0.82 mM MgSO4, 10 μg/ml sodium penicillin, 10 μg/ml streptomycin sulfate, and 15 mM HEPES) at 19° C. for three to four days and used for measurement.
# (3) Electrophysiological and pharmacological experiment by two-electrodes voltage clamp method.
# (§2) The above-mentioned oocyte was set in a chamber under perfusion of frog Ringer's solution (120 mM NaCl, 2 mM KCl, 1.8 mM CaCl2, and 5 mM HEPES, pH 7.4) and microelectrodes were inserted into oocytes and the membrane potential was fixed at -70 mV. Subsequently, another frog Ringer's solution in which AMPA (100 μM) or kainate(KA) (100 μM) both of which are agonists for non-NMDA receptors was dissolved was substituted for the original Ringer's solution and then an inward membrane current was measured.
# The membrane potential was fixed at -70 mV. The response was defined as one which was generated on the specimen under perfusion of frog Ringer's solution in which AMPA or kainic acid both of which are agonists for non-NMDA receptors was dissolved until a final concentration of 100 μM. The responses are shown as relative values which were measured on the oocytes under perfusion of frog Ringer's solution in which the compound of the invention and anilacetum which is a potentiator for non-NMDA receptors were dissolved until a concentration of 50 μM with AMPA or kainic acid.
# [2] = tested on: non-NMDA receptors; test: Inward membrane current elicited by the compound alone in Xenopus oocytes injected with rat hippocampus poly(A)+ RNA (agonist action); assay type: cell-based; details: antagonist 1 μM
# Method: as §1, §2
# [3] = 50 μM test substance with 100 μM AMPA, membrane potential -70 mV, control (AMPA alone) = 1
# [4] = 50 μM test substance with 100 μM kainic acid, membrane potential -70 mV, control (kainic acid alone) = 1
Structure (SMILES),"Potentiation (relative values with a control as 1), AMPA ([1]; xenopus oocytes, 50 µM)","Potentiation (relative values with a control as 1), kainic acid ([1]; xenopus oocytes, 50 µM)",further results
"N#Cc1cc2[nH]c(=O)c(=O)[nH]c2cc1[N+](=O)[O-] [CNQX, reference compound]",,,"Inhibition of inward membrane current elicited by AMPA (100 μM) or kainate (100 μM) ([1]; antagonist 1 μM, -70 mV): inhibited; Inhibition of inward membrane current elicited by the compound of the invention alone [2]: inhibited"
"O=C(O)COc1c(F)cc(SCCNS(=O)(=O)c2ccc(Cl)cc2)cc1F [Compound 68, 2,6-Difluoro-4-[2-(4-chlorophenylsulfonylamino)ethylthio]phenoxyacetic acid]",1.5,1.6,
"O=C(O)COc1ccc(SCCNS(=O)(=O)c2ccc(Br)cc2)cc1F [Compound 106, 2-Fluoro-4-[2-(4-bromophenylsulfonylamino)ethylthio]phenoxyacetic acid]",1.4,1.5,
"COC(=O)COc1c(F)cc(SCCNS(=O)(=O)c2ccc(Cl)cc2)cc1F [Compound 128, methyl 4-[2-(4-chlorophenylsulfonylamino)ethylthio]-2,6-difluorophenoxyacetate]",1.5,1.6,
"NC(=O)COc1c(F)cc(SCCNS(=O)(=O)c2ccccc2)cc1F [Compound 139, 4-[2-(Phenylsulfonylamino)ethylthio]-2,6-difluorophenoxyacetamide]",,,"Potentiation of the non-NMDA receptor response (membrane current elicited by kainic acid and AMPA), in words ([1]; 50 μM compound with 100 μM AMPA or kainic acid): definitely active; also recorded: especially strong action; Potentiation (relative values with a control as 1), AMPA [1, 3]: 23.2; Potentiation (relative values with a control as 1), kainic acid [1, 4]: 2.8"
"NC(=O)COc1ccc(SCCNS(=O)(=O)c2ccccc2)cc1F [Compound 142, 4-[2-(Phenylsulfonylamino)ethylthio]-2-fluorophenoxyacetamide]",1.6,1.5,
"CN(C)C(=O)COc1ccc(SCCNS(=O)(=O)c2ccccc2)cc1F [Compound 143, N,N-Dimethyl-4-[2-(phenylsulfonylamino)ethylthio]-2-fluorophenoxyacetamide]",1.4,1.6,
"NC(=O)Cc1ccc(SCCNS(=O)(=O)c2ccccc2)cc1 [Compound 145, 4-[2-(phenylsulfonylamino)ethylthio]phenylacetamide]",1.3,1.5,
C[C@]12N[C@H](Cc3ccccc31)c1ccccc12 [MK-801],,,Inhibition of inward membrane current elicited by the compound of the invention alone [2]: not inhibited
"COc1ccc(C(=O)N2CCCC2=O)cc1 [anilacetum, reference compound]",,,"Potentiation (relative values with a control as 1), AMPA [1, 3]: does not potentiate; Potentiation (relative values with a control as 1), AMPA ([1]; 50 μM test substance with 100 μM AMPA, membrane potential -70 mV, control (AMPA alone) = 1, 50 µM): 1; Potentiation (relative values with a control as 1), kainic acid [1, 4]: does not potentiate; Potentiation (relative values with a control as 1), kainic acid ([1]; 50 μM test substance with 100 μM kainic acid, membrane potential -70 mV, control (kainic acid alone) = 1, 50 µM): 1; Effect on response elicited by AMPA ([1]; 1 mM test substance): doubles; Effect on response elicited by kainic acid ([1]; 1 mM test substance (20 times in concentration)): does not affect"
